Reference: patent US20110104052A1, “METHODS OF SYNTHESIS AND USE OF CHEMOSPHERES” (THE JOHNS HOPKINS UNIVERSITY, priority 2007, published 2011)

Columns and labels:
[1] = Loading of doxorubicin into liposome polymer matrices; format: physicochemical; settings: polymer/lipid:drug ratio approximately at least 50:1, mol/mol
Procedure: The spheres that were subjected to ultrafiltration or column washes were stored for a variable amount of time in a minimal amount of 3 M sucrose, 750 mM Histidine HCl to maintain hydration at 20° C. and 5° C. Following storage the loading efficiency of doxorubicin into the spheres was assessed (table 1). For drug loading a procedure that could easily be implement in the pharmacy was employed. Specifically a water bath or dry heat block was allowed to equilibrate at 58° C. (55°-60° C.). For each 1 mL packed volume of microspheres, 50 mg of lyophilized doxorubicin (for storage lactose and parahydroxybenzoate may be added) in a solution of 8 mL was prepared. This solution was then added to the equilibrated heating source for 10 min. Next a 2 mL concentrated solution of sodium carbonate was injected into the microsphere solution. The 2 mL of microspheres and 8 mL of doxorubicin were then combined creating a solution with pH of 7 (this step should be done within 2 minutes of adding sodium carbonate to the microspheres). The mixture should be shaken vigorously and allowed to sit for at least 10 minutes in the heat block or water bath and then brought to room temperature. After this period the spheres can be stored up to 10 hours at 25° C. and for 7 days at 2° C.-8° C. […]

[2] = tested on: tumors growing within the liver; settings: rabbit model for liver cancer; cited from earlier work

| SMILES | added doxorubicin that becomes vesicle entrapped as doxorubicin-citrate [1] | effect of bolus injection on non-tumor tissue [2] |
| --- | --- | --- |
| COc1cccc2c1C(=O)c1c(O)c3c(c(O)c1C2=O)C[C@@](O)(C(=O)CO)C[C@@H]3O[C@H]1C[C@H](N)[C@H](O)[C@H](C)O1 [doxorubicin] | greater than 90% |  |
| O=C(O)C(=O)CBr [3-bromopyruvate] |  | damages surrounding liver tissue |
